Results reported in ChEMBL document CHEMBL1141936, “Structural basis for the GSK-3beta binding affinity and selectivity against CDK-2 of 1-(4-aminofurazan-3yl)-5-dialkylaminomethyl-1H-[1,2,3] triazole-4-carboxylic acid derivatives” (Bioorg Med Chem Lett, 2005).

Key:
[1] = biological target: Cyclin-dependent kinase 2 (Homo sapiens, UniProt P24941); test: Inhibitory activity against CDK2
[2] = biological target: Glycogen synthase kinase-3 beta (Homo sapiens, UniProt P49841); test: Inhibitory activity against GSK3-beta
Sequence of Glycogen synthase kinase-3 beta (P49841 whole entry): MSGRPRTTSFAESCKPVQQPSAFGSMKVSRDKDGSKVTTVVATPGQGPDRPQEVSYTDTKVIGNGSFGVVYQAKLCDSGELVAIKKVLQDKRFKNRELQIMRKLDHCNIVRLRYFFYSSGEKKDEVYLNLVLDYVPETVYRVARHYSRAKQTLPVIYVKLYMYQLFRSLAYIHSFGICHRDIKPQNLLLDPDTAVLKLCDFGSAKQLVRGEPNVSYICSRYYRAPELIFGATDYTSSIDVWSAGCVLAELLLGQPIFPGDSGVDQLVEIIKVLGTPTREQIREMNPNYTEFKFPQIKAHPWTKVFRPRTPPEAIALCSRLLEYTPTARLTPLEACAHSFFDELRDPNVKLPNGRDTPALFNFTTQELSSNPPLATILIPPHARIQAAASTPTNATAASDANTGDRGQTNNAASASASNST

Row | Compound | IC50 [1] [nM] | IC50 [2] [nM]
1 | NC1=NONC1N1N=NC(C(=O)N/N=C/c2ccncc2)C1CN1CCCCC1 (centres undefined) | 96000 | 100
2 | NC1=NONC1N1N=NC(c2nnc(-c3ccncc3)[nH]2)C1CN1CCCCC1 (centres undefined) | > 250000 | 280
